Literature values in patent publication US20220160648A1, “Composition Comprising Hydrolyzed Collagen and Cannabidiol and Use Thereof” (Inspired Health Products, LLC, priority 2019, published 2022).

What was measured:
[1] = reported
[2] = ingested, dosages from at least 3 g to as much as 60 g per day

Structure (SMILES): C=C(C)[C@@H]1CCC(C)=C[C@H]1c1c(O)cc(CCCCC)cc1O [CBD isolate, 2-[(1R,6R)-3-methyl-6-prop-1-en-2-ylcyclohex-2-en-1-yl]-5-pentylbenzene-1,3-diol]
- anticonvulsant properties [1]: did not

Structure (SMILES): NCC(=O)O [glycine]
- effect on sleep [2]: beneficial effect on sleep
